Measured values from patent US11660339B2, “Methods of treating cancer using compositions of antibodies and carrier proteins with antibody pretreatment” (Mayo Foundation for Medical Education and Research, priority 2015, dated 2023).

System: A375 human melanoma cells
Assay: A375 human melanoma xenograft in athymic nude mice: tumor volume and survival
Assay type: in vivo
Text: Data is represented as tumor volume in mm^3.
Survival was again assessed at day 40.

bevacizumab
therapeutic effect in the experiment (in words) (12 mg/kg BEV alone, 1.2 mg/kg BEV pretreatment before AB160): not therapeutic
Percent Alive on day 15 (day 15 post treatment, 12 mg/kg BEV, 30 mg/kg ABX, AB160, or 1.2 mg/kg BEV 24 hr before AB160): 0%
median survival (survival assessed at day 40): 7 days
